4 molecules from patent publication US12486259B2, “FXR agonist having pyrazine structure, and preparation method and use” (JIANGSU TASLY DIYI PHARMACEUTICAL CO., LTD., priority 2020, dated 2025) can be followed below.

For series [1], the target named is T1, GST-labeled recombinant human FXR protein (Homo sapiens, UniProt Q96RI1).
T1 construct: purchased Invitroren (so in the source)
T1 sequence (Q96RI1 262-486 limits assumed): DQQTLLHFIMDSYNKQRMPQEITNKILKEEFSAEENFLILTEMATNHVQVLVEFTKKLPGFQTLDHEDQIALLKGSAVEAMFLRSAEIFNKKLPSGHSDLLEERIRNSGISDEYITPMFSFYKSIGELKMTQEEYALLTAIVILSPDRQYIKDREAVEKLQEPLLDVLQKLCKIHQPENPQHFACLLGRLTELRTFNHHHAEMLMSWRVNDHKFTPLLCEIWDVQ
T1 sequence (Q15788 676-700 partner limits assumed): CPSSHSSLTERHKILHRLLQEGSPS
Briefly: Agonistic activity on FXR receptor (GST-FXR / SRC-1 bead assay, protein level). In kind it is biochemical. Conditions: 0.4 nM FXR, 30 nM SRC-1, protein level. How it is done:
Experimental procedures: FXR (GST-labeled recombinant human FXR protein, manufacturer: Invitroren, Item number: PV4835) and SRC-1 (steroid receptor co-activator-1) are thawed on ice. Three solutions of ABC are prepared by a buffer solution, solution A, 0.4 n M FXR and 30 nM SRC-1; solution B, 10 ug/ml Acceptor Beads; solution C, 10 ug/ml Donor Beads. Solution A is added to the plate at 15 uL per well. It is incubated at room temperature for 1 hour. Solution B is added to the plate at 7.5 uL per well. It is incubated at room temperature for 1 hour. Solution C is added to the plate at 7.5 uL per well. It is incubated at room temperature for 1 hour. It is read from the microplate reader Envision. The data are curve fitted by using Prism 5.0 to calculate the EC50.

The target of a further series is T2, FXR (Homo sapiens, UniProt Q96RI1).
T2 construct: expressed in transfected cells
T2 sequence (Q96RI1 1-486): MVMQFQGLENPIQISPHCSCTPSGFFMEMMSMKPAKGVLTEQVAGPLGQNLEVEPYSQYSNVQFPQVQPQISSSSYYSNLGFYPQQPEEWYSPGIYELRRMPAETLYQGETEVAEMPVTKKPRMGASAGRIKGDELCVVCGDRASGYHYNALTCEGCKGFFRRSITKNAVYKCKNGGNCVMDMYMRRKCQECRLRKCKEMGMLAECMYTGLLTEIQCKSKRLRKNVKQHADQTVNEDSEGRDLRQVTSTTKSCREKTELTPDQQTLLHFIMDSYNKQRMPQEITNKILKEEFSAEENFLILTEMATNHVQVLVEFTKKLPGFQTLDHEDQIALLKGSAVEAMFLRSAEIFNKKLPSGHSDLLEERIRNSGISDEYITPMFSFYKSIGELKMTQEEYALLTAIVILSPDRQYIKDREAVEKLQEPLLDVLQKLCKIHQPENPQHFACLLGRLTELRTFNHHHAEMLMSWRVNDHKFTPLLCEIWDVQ
The series can be described thus: Intracellular FXR-TR-FRET experiment (pBIND-FXR / pG5Luc dual luciferase). In kind it is cell-based. Conditions: cellular level, 18 hours with compound. How it is done: • 1. Cell culture: a, trypsinize dishes and seed cells are taken with appropriate density in 10 ml of complete […] at 37° C. b. Cells are incubated for 24 hours in 5% CO2 and humidified. • 2. Cell inoculation and transfection: FuGENE HD transfection reagent is used as a transfection reagent. • a. The transfection mixture is prepared according to the following procedure:
• b. The tube is tapped vigorously to mix the contents. The mixture is incubated at room temperature for 15 minutes. • c. Discs are trypsinized and cell density is determined. • d. The cytolymph is diluted to the desired volume at a density of 500,000 cells/ml (100 ul/well for 96-well plate). • e. The required volume of previously prepared transfection mixture is added to both cytolymph, and then 100 ul/well of cytolymph is dispensed onto the assay plate. • f. The assay plate is incubated under humidified conditions at 37° C., 5% CO2 for 24 hours. • 3. Compound preparation: • a. Compound stocks are prepared with a FXR working concentration of 10 mM and then diluted 3-fold in 100% DMSO. • b. 10 ul compound is added to 90 ul complete medium. • c. 5 ul compound solution is added to each well. • d. The plate is incubated at 37° C., 5% CO2 and humidified for 18 hours. • 4. Dual luciferase assay: the firefly and Renilla luciferase signals are analyzed by Dual Luciferase Reporter Assay System from Promega. Envision is used as a photometer. • 5. Result calculation: data values are normalized by dividing the firefly signal by the Renilla signal. “F/R” means “firefly/Renilla”. This normalization eliminates differences in different cell numbers and transfection efficiencies in each well. The % Activation value is calculated. The % Activation value is calculated by the following formula.
X is the “F/R” value for each concentration point. The minimum value is the average “F/R” value for the no compound control. The maximum value is the average “F/R” value of the reference compound control. • 6.
On the technique in general: Time-resolved FRET reads energy transfer from a long-lived donor to a nearby acceptor.

Another series can be described thus: in vitro. Conditions: human; for efflux ratio: Caco-2; for Papp B→A: Caco-2, Papp B-A; for recovery: Caco-2, Recovery rate A-B. As to the method:
The bi-directional transport of target compounds from apical side (AP) to basolateral side (BL) and from BL side to AP side is studied by using human colon adenocarcinoma cell line Caco-2 monolayer model. The transport parameters, apparent permeability coefficient (Papp) and efflux ratio are calculated by quantitative analysis with high performance liquid chromatography (HPLC).

Where [2] appears, read: Caco-2, Papp, A-to-B values (highly permeable substrates).

What is called EC50 is the concentration needed to bring the measured effect to its halfway point. For orientation: efflux ratio means a quotient of directional permeabilities that is used to spot active efflux. The term Papp A→B denotes the apparent permeability from the apical to the basolateral side of a cell layer. High values mean ready permeation, low ones poor permeation. As usually defined, the Papp B→A is the apparent permeability from the basolateral to the apical side of a cell layer. On to `O=C(O)c1cccc(C2CC(O)(c3cnc(OCc4c(-c5c(Cl)cccc5Cl)noc4C4CC4)cn3)C2)c1` (stereo not drawn) [TM-01, 3-(3-(5-(5-cyclopropyl-3-(2,6-dichlorophenyl)isoxazole-4-ylmethoxy)-2-pyrazine)-1-hydroxycyclobutane) benzoic acid], for which the EC50 amounted to 540 nM in series [1] and 1280 nM at FXR. The efflux ratio in “in vitro” stood at 3.95. In addition, the Papp A→B in “in vitro” (Caco-2, Papp A-B) is 8.25 ×10⁻⁶ cm/s; in “in vitro” (Caco-2, Papp A-B, Average) it was 8.17 ×10⁻⁶ cm/s; in the series “in vitro” (Caco-2, Papp A-B, Sample-01) it was 6.42 ×10⁻⁶ cm/s; in “in vitro” (Caco-2, Papp A-B, Sample-02), 9.91 ×10⁻⁶ cm/s; in the series “in vitro” (setting [2]) it was above 2.5 ×10⁻⁶ cm/s. The same molecule gave a basolateral-to-apical permeability (Papp B→A) in “in vitro” of 32.6 ×10⁻⁶ cm/s. The recovery in the series “in vitro” (Average) was determined as 71.2%; in the series “in vitro” (Sample-01), 63.9%; in “in vitro” (Sample-02), 78.5%.
As to `O=C(O)c1cccc(N2CC(O)(c3cnc(OCc4c(-c5c(Cl)cccc5Cl)noc4C4CC4)cn3)C2)c1` [TM-02, 3-(3-(5-((5-cyclopropyl-3-(2,6-dichlorophenyl)isoxazol-4-yl)methoxy)pyrazine-2-yl)-3-hydroxyazetidin-1-yl) benzoic acid], the concentration giving a half-maximal response (EC50) in series [1] was 2320 nM; at FXR it was 3140 nM. Also, the efflux ratio in “in vitro” was determined as 3.75. Besides, the Papp A→B is 8.87 ×10⁻⁶ cm/s in the series “in vitro” (Caco-2, Papp A-B); 9.02 ×10⁻⁶ cm/s in “in vitro” (Caco-2, Papp A-B, Average); 8.57 ×10⁻⁶ cm/s in the series “in vitro” (Caco-2, Papp A-B, Sample-01); 9.47 ×10⁻⁶ cm/s in “in vitro” (Caco-2, Papp A-B, Sample-02); above 2.5 ×10⁻⁶ cm/s in “in vitro” (setting [2]). The apparent permeability from basolateral to apical (Papp B→A) in the series “in vitro” was 33.3 ×10⁻⁶ cm/s. For the same molecule, the recovery in “in vitro” (Average) was 70.8%; in “in vitro” (Sample-01), 64.9%; in the series “in vitro” (Sample-02), 76.8%.
Consider `CC(C)c1onc(-c2c(Cl)cccc2Cl)c1COc1cnc(C2(O)CC(c3cccc(C(=O)O)c3)C2)cn1` (stereo not drawn) [TM-06, 3-(3-(5-(5-isopropyl-3-(2,6-dichlorophenyl)isoxazole-4-ylmethoxy)-2-pyrazine)-1-hydroxycyclobutane) benzoic acid], for which the EC50 in series [1] is 2410 nM; at FXR it was 1790 nM. For the same molecule, the efflux ratio in “in vitro” came out at 5.12. In addition, the apical-to-basolateral permeability (Papp A→B) in “in vitro” (Caco-2, Papp A-B) is 7.54 ×10⁻⁶ cm/s; in “in vitro” (Caco-2, Papp A-B, Average) it was 7.17 ×10⁻⁶ cm/s; in “in vitro” (Caco-2, Papp A-B, Sample-01), 7.86 ×10⁻⁶ cm/s; in the series “in vitro” (Caco-2, Papp A-B, Sample-02), 6.48 ×10⁻⁶ cm/s; in the series “in vitro” (setting [2]) it was above 2.5 ×10⁻⁶ cm/s. Besides, the Papp B→A in the series “in vitro” worked out at 38.6 ×10⁻⁶ cm/s. The recovery in the series “in vitro” (Average) was 74.2%; in “in vitro” (Sample-01), 81%; in “in vitro” (Sample-02) it was 67.3%.
With `Cc1cc(C(=O)O)cc(C2CC(O)(c3cnc(OCc4c(-c5c(Cl)cccc5Cl)noc4C(C)C)cn3)C2)c1` (stereo not drawn) [TM-09, 3-(3-(5-((3-(2,6-dichlorophenyl)-5-isopropylisoxazol-4-yl)methoxy)pyrazine-2-yl)-3-hydroxycyclobutyl)-5-methyl benzoic acid], the half-maximal effective concentration (EC50) in series [1] is 480 nM; on FXR, 260 nM. For the same molecule, the efflux ratio in the series “in vitro” stood at 4.22. Further, the apparent permeability from apical to basolateral (Papp A→B) in “in vitro” (Caco-2, Papp A-B) was 6.91 ×10⁻⁶ cm/s; in “in vitro” (Caco-2, Papp A-B, Average), 8.75 ×10⁻⁶ cm/s; in the series “in vitro” (Caco-2, Papp A-B, Sample-01) it was 8.46 ×10⁻⁶ cm/s; in “in vitro” (Caco-2, Papp A-B, Sample-02), 9.05 ×10⁻⁶ cm/s; in “in vitro” (setting [2]) it was above 2.5 ×10⁻⁶ cm/s. The molecule also yielded a Papp B→A in the series “in vitro” of 29.2 ×10⁻⁶ cm/s. Also, the figures for the recovery in “in vitro” (Average), in “in vitro” (Sample-01) and in “in vitro” (Sample-02) were 81.4%, 80.9% and 82%, respectively.
